Data set [1] deals with L₁-Larven von Lucilia sericata. Put plainly: B-3 action against L1 larvae in larval culture medium. The format is in vivo. The following applies: 96 h, reduced concentration of 100 ppm, after 4 days, read-out: Wirkung (Mortalitätsrate). How it is done:
B-3. Wirkung gegen L₁-Larven von Lucilia sericata
1 ml einer wässrigen Suspension der zu prüfenden Aktivsubstanz werden so mit 3 ml eines speziellen Larvenzuchtmediums bei ca. 50°C vermischt, dass ein Homogenisat von wahlweise 250 ppm oder […] Wirkstoffgehalt entsteht. In jede Reagenzglas-Probe werden ca. 30 Lucilia-Larven (L₁) eingesetzt. Nach 4 Tagen wird die Mortalitätsrate bestimmt. Die Verbindungen aus den Herstellungsbeispielen zeigen bei 250 ppm eine Wirkung von 100 %, wobei die Verbindungen aus den Herstellungsbeispiele, wie z.B. E8, E6, E2, E14, E22, E28, E26, E30, E32, E34, E36 und E38, diese Wirkung auch noch bei der reduzierten Wirkstoffkonzentration von 100 ppm erzielten.

Another data set concerns Meloidogyne incognita. Put plainly: B-8 soil nematicidal action on tomato plants, root-knot index. Format: in vivo. The following applies: 0,002 % active substance relative to soil volume, after 4 weeks; result in words. The method, then: B-8. Bodennematizide Wirkung gegen Meloidogyne incognita
Eier von Meloidogyne incognita werden in Sand eingemischt. Dieses Gemisch wird dann in 200 ml fassende Tontöpfe eingebracht (5000 Eier pro Topf). Am gleichen Tag wird pro Topf eine 3 Wochen alte Tomatenpflanze gepflanzt und der formulierte Wirkstoffe mittels Druckapplikation in die Töpfe hineingegeben (0,002 % Aktivsubstanz bezogen auf das Bodenvolumen). Die eingetopften Pflanzen werden nun bei einer Temperatur von 26±1°C und einer relativen Luftfeuchtigkeit von 60 % in einem Gewächshaus aufgestellt. Nach Ablauf von 4 Wochen erfolgt eine Evaluierung durch Untersuchung der Pflanzen auf Wurzelgallbildung nach dem sogenannten Wurzelgall-Index ("Knot Index").

A further data set concerns Spodoptera littoralis. The data set is described as follows: B-1 insecticidal stomach-poison action on sprayed cotton plants. Format: in vivo. The conditions noted are these: 12,5 ppm active ingredient, after 24 hours, L1 larvae on cotton plants. How it is done:
B-1. Insektizide Frassgift-Wirkung bei Spodoptera littoralis
Eingetopfe Baumwollpflanzen im 5-Blatt-Stadium werden mit einer acetonisch/wässrigen Versuchslösung besprüht, die 3, 12,5 oder 50 ppm der zu prüfenden Verbindung enthält.
Nach dem Antrocknen des Belags werden die Pflanzen mit ca. 30 Larven (L₁-Stadium) von Spodoptera littoralis besetzt. Pro Versuchsverbindung und pro Test-Spezies verwendet man zwei Pflanzen. Der Versuch wird bei ca. 24°C und 60 % relativer Luftfeuchtigkeit durchgeführt Auswertungen und Zwischenauswertungen auf moribunde Tiere, Wachstum und Larven und Frasschäden erfolgen nach 24 Stunden, 48 Stunden und 72 Stunden.

In data set [2] the test system is Haemonchus concortus und Trichostrongylus colubriformis. The data set is described as follows: B-5 test on nematode-infected sheep, worm egg count in faeces. Format: in vivo, Schafen. The conditions noted are these: single dose 0,5 mg/kg by stomach tube or intraruminal injection. How it is done:
B-5. Versuch an mit Nematoden (Haemonchus concortus und Trichostrongylus colubriformis) infizierten Schafen
Der Wirkstoff wird als Suspension formuliert mit einer Magensonde oder durch Injektion in den Pansen eines Schafes gegeben, das mit Haemonchus concortus und Trychostrongylus colubriformis künstlich infiziert worden ist. Pro Dosis werden 1 bis 3 Tiere verwendet. Jedes Schaf wird nur einmal mit einer einzigen Dosis behandelt, und zwar wahlweise mit 1 mg oder 0,5 mg/kg Körpergewicht. Die Evaluierung erfolgt durch Vergleich der Anzahl der vor und nach Behandlung im Kot der Schafe ausgeschiedenen Wurmeier.
Gleichzeitig und gleichartig infizierte aber unbehandelte Schafe dienen als Kontrolle. […] Verbindungen aus den Herstellungsbeispielen, wie. z.B. E4, E8, E14, E18, E30 bis E32, E 34 und E36, bewirkten dies auch noch bei 0,5 mg/kg.

Another data set deals with Aedes aegypti. Put plainly: B-7 larvicidal action in water. The following applies: 3,3 ppm, after one day. The format is in vivo. How it is done:
B-7. Larvizidwirkung gegen Aedes aegypti
Auf die Oberfläche von 150 ml Wasser, das sich in einem Behälter befindet, wird soviel einer 0,1 %igen acetonischen Lösung des Wirkstoffes pipettiert, dass Konzentrationen von wahlweise 10 ppm, 3,3 ppm und 1,6 ppm erhalten werden. Nach Verdunsten des Acetons wird der Behälter mit ca. 30-40 3 Tage alten Aedes-Larven beschickt. Nach 1, 2 und 5 Tagen wird die Mortalität geprüft.

The test system of another data set is Dermanyssus gallinae. Put plainly: B-4 miticidal action, wetting test in glass container. Format: in vivo. The following applies: 72 h, observed for three days, read-out: Wirkung (Mortalität). How it is done:
B-4. Milbizide Wirkung gegen Dermanyssus gallinae
2 bis 3 ml einer Testlösung (100, 10, 1 und 0,1 ppm Aktivsubstanz) werden in einem nach oben offenen Glasbehälter gegeben und ca. 200 Milben in unterschiedlichen Entwicklungstadien in diesen Behälter eingesetzt. Der Glasbehälter wird mit einem Wattebausch verschlossen und 10 Minuten gleichmässig, bis zur vollständigen Benetzung der Milben geschüttelt. Danach wird der Behälter umgekehrt hingestellt, bis die überschüssige Testlösung von der Watte aufgesogen ist. Der Behälter wird erneut gekehrt und die behandelten Zecken zur Evaluierung der Wirksamkeit der Testsubstanzen drei Tage unter Laborbedingungen beobachtet, wobei die Mortalität als Massstab für Wirksamkeit herangezogen wird.

The next data set deals with Aphis craccivora. The data set is described as follows: B-6 contact action on infested pea seedlings. The conditions noted are these: for mortality at 25 ppm: Aphis craccivora, 72 h, read-out: Abtötung. The format is in vivo. The source says: B-6. Kontaktwirkung auf Aphis craccivora
Erbsenkeimlinge, die mit sämtlichen Entwicklungsstadien der Laus infiziert sind, werden mit einer aus einem Emulsionskonzentrat hergestellten Wirkstofflösung besprüht, die wahlweise 50 ppm, 25 ppm oder 12,5 ppm Wirkstoff enthält. Nach 3 Tagen wird auf mehr als 80 % tote bzw. abgefallene Blattläuse ausgewertet. Nur bei dieser Wirkungshöhe wird ein Präparat als wirksam eingestuft.

For data set [3], the system named is OP-sensible Tetranychus urticae. Put plainly: B-2 action against plant-damaging acarids on bean plants. The conditions noted are these: 1,6 ppm active ingredient, evaluation after seven days. Format: in vivo. The source says:
B-2. Wirkung gegen pflanzenschädigende Akariden OP-sensible Tetranychus urticae
Die Primärblätter von Bohnenpflanzen (Phaseolus vulgaris) werden 16 Stunden vor dem Versuch mit einem durch T. urticae infestierten, aus einer Massenzucht stammenden Blattstück belegt. Die so mit allen Milben-Stadien infestierten Pflanzen werden nach Entfernung des Blattstücks mit einer Versuchslösung bis zur Tropfnässe besprüht, die wahlweise 0,4 ppm oder 1,6 ppm der zu prüfenden Verbindung enthält. Die Temperatur in der Gewächshauskabine beträgt ca. 25°C.
Nach sieben Tagen wird unter dem Binokular auf Prozentsatz mobiler Stadien (Adulte und Nymphen) und auf vorhandene Eier ausgewertet.

Each structure is given as a SMILES string. Read-outs that look alike come from different tables or passages of the source.

Take `CCC1OC2(CCC1C)CC1CC(CC=C(C)C(OC(=O)NC)C(C)C=CC=C3COC4C(O)C(C)=CC(C(=O)O1)C34O)O2` (stereo not drawn) [Beispiel E2, 13β-N-Methyl-carbamoyloxy-milbemycin A₄]: the mortality at 100 ppm in data set [1] turned out to be 100%. The “Wirksamkeit gegen Meloidogyne incognita (Reduktion der Wurzelgallbildung)” value (“Wirksamkeit gegen Meloidogyne incognita” for short) in the data set on Meloidogyne incognita is listed as “besonders aktiv”.

With `CC[C@H]1O[C@]2(CC[C@@H]1C)C[C@@H]1C[C@@H](C/C=C(\C)[C@H](OC(=O)NC(C)(C)C)[C@@H](C)/C=C/C=C3\CO[C@@H]4[C@H](O)C(C)=C[C@@H](C(=O)O1)[C@]34O)O2` [Beispiel E4, 13β-N-tert.-Butyl-carbamoyloxy-milbemycin A₄], the Abtötung entry in the data set with Spodoptera littoralis is recorded as “vollständige Abtötung”. The “Nematodenbefall (Reduktion der Wurmeier im Kot)” value (“Nematodenbefall” for short) in data set [2] is given as “komplette Reduktion der Wurmeier im Kot”. For the same molecule, the “Abtötung sämtlicher Larven” value in the data set on Aedes aegypti is reported as “vollständige Abtötung”.

Consider `CCC1OC2(CCC1C)CC1CC(CC=C(C)C(OC(=O)Nc3ccccc3)C(C)C=CC=C3COC4C(O)C(C)=CC(C(=O)O1)C34O)O2` (stereo not drawn) [Beispiel E6, 13β-N-Phenyl-carbamoyloxy-milbemycin A₄], for which the Abtötung entry in the data set with Spodoptera littoralis is given as “vollständige Abtötung”. For the same molecule, in data set [1], the mortality at 100 ppm came to 100%.

On to `CCC1OC2(CCC1C)CC1CC(CC=C(C)C(OC(=O)N(C(C)C)C(C)C)C(C)C=CC=C3COC4C(O)C(C)=CC(C(=O)O1)C34O)O2` (stereo not drawn) [Beispiel E8, 13β-N,N-Diisopropyl-carbamoyloxy-milbemycin A₄], for which, in data set [2], the “Nematodenbefall” value is given as “komplette Reduktion der Wurmeier im Kot”. In addition, the mortality at 100 ppm in data set [1] stood at 100%. Besides, the mortality at 10 ppm with Dermanyssus gallinae stood at 100%. Besides, in the data set with Aphis craccivora (25 ppm, after 3 days), the mortality at 25 ppm stood at 100%. Moreover, in the data set with Aedes aegypti, the “Abtötung sämtlicher Larven” value was “vollständige Abtötung”.

As to `CNC(=O)OC1C(C)=CCC2CC(CC3(CCC(C)C(C(C)C)O3)O2)OC(=O)C2C=C(C)C(O)C3OCC(=CC=CC1C)C23O` (stereo not drawn) [Beispiel E10, 13β-N-Methylcarbamoyloxy-milbemycin D], the Abtötung entry with Spodoptera littoralis is “vollständige Abtötung”. Also, the mortality at 10 ppm with Dermanyssus gallinae was found to be 100%. For the same molecule, in the data set with Meloidogyne incognita, the “Wirksamkeit gegen Meloidogyne incognita” value is “besonders aktiv”. In the data set with Aphis craccivora, the mortality at 25 ppm was found to be 100%.

`CCC1OC2(CCC1C)CC1CC(CC=C(C)C(OC(=O)NC3CCCCC3)C(C)C=CC=C3COC4C(O)C(C)=CC(C(=O)O1)C34O)O2` (stereo not drawn) [Beispiel E12, 13β-N-Cyclohexylcarbamoyloxy-milbemycin A₄]: the Abtötung entry in the data set with Spodoptera littoralis was “vollständige Abtötung”; in the data set with Aphis craccivora (25 ppm, after 3 days) it was 100%.

For the molecule `CCC1OC2(CCC1C)CC1CC(CC=C(C)C(OC(=O)Nc3ccc(Br)cc3)C(C)C=CC=C3COC4C(O)C(C)=CC(C(=O)O1)C34O)O2` (stereo not drawn) [Beispiel E14, 13β-N-(4-Bromphenyl)carbamoyloxy-milbemycin A₄], the Abtötung result in the data set with Spodoptera littoralis is listed as “vollständige Abtötung”. The “Nematodenbefall” value in data set [2] was “komplette Reduktion der Wurmeier im Kot”. Also, the mortality at 100 ppm in data set [1] came to 100%. Besides, the mortality at 25 ppm in the data set with Aphis craccivora (25 ppm, after 3 days) was 100%. For the same molecule, in the data set on Aedes aegypti, the “Abtötung sämtlicher Larven” value is on record as “vollständige Abtötung”.

In the case of `CC[C@H]1O[C@]2(CC[C@@H]1C)C[C@@H]1C[C@@H](C/C=C(\C)[C@H](OC(=O)N(C)C)[C@@H](C)/C=C/C=C3\CO[C@@H]4[C@H](O)C(C)=C[C@@H](C(=O)O1)[C@]34O)O2` [Beispiel E16, 13β-N,N-Dimethyl-carbamoyloyx-milbemycin A₄], the Abtötung result with Spodoptera littoralis is listed as “vollständige Abtötung”. Moreover, the “Wirksamkeit gegen Meloidogyne incognita” value in the data set on Meloidogyne incognita was “besonders aktiv”.

For `CCNC(=O)O[C@H]1/C(C)=C/C[C@@H]2C[C@@H](C[C@]3(CC[C@H](C)[C@@H](CC)O3)O2)OC(=O)[C@@H]2C=C(C)[C@@H](O)[C@H]3OC/C(=C\C=C\[C@@H]1C)[C@]32O` [Beispiel E18, 13β-N-Ethyl-carbamoyloxy-milbemycin A₄], the “Nematodenbefall” value in data set [2] is “komplette Reduktion der Wurmeier im Kot”. In the data set with Meloidogyne incognita, the “Wirksamkeit gegen Meloidogyne incognita” value is “besonders aktiv”.

As to `CC[C@H]1O[C@]2(CC[C@@H]1C)C[C@@H]1C[C@@H](C/C=C(\C)[C@H](OC(=O)Nc3ccc([N+](=O)[O-])cc3)[C@@H](C)/C=C/C=C3\CO[C@@H]4[C@H](O)C(C)=C[C@@H](C(=O)O1)[C@]34O)O2` [Beispiel E20, 13β-N-(4-Nitrophenyl)-carbamoyloxy-milbemycin A₄], in data set [3], the Abtötung result is “vollständige Abtötung”. Moreover, the “Abtötung sämtlicher Larven” value with Aedes aegypti is reported as “vollständige Abtötung”.

Take `CCC1OC2(CCC1C)CC1CC(CC=C(C)C(OC(=O)NC(C)C)C(C)C=CC=C3COC4C(O)C(C)=CC(C(=O)O1)C34O)O2` (stereo not drawn) [Beispiel E26, 13β-Isopropyl-carbamoyloxy-milbemycin A₄]: the mortality at 100 ppm in data set [1] worked out at 100%. In addition, in the data set on Dermanyssus gallinae, the mortality at 10 ppm was 100%.

Regarding `CCC1OC2(CCC1C)CC1CC(CC=C(C)C(OC(=O)NCc3ccccc3)C(C)C=CC=C3COC4C(O)C(C)=CC(C(=O)O1)C34O)O2` (stereo not drawn) [Beispiel E28, 13β-N-Benzyl-carbamoyloxy-milbemycin A₄], the mortality at 100 ppm in data set [1] was 100%.

With `CCC1OC2(CCC1C)CC1CC(CC=C(C)C(OC(=O)NC(C)c3ccccc3)C(C)C=CC=C3COC4C(O)C(C)=CC(C(=O)O1)C34O)O2` [Beispiel E30, 13β-N-((S)-1-Phenylethyl)-carbamoyloxy-milbemycin A₄], the mortality at 100 ppm in data set [1] was 100%.

For the molecule `CCC1OC2(CCC1C)CC1CC(CC=C(C)C(OC(=O)Nc3ccccc3Br)C(C)C=CC=C3COC4C(O)C(C)=CC(C(=O)O1)C34O)O2` (stereo not drawn) [Beispiel E34, 13β-N-(2-Bromphenyl)-carbamoyloxy-milbemycin A₄], the “Nematodenbefall” value in data set [2] is on record as “komplette Reduktion der Wurmeier im Kot”. For the same molecule, the mortality at 100 ppm in data set [1] was found to be 100%.

Consider `CCc1ccccc1NC(=O)OC1C(C)=CCC2CC(CC3(CCC(C)C(CC)O3)O2)OC(=O)C2C=C(C)C(O)C3OCC(=CC=CC1C)C23O` (stereo not drawn) [Beispiel E36, 13β-N-(2-Ethylphenyl)-carbamoyloxy-milbemycin A₄], for which the “Nematodenbefall” value in data set [2] is “komplette Reduktion der Wurmeier im Kot”. For the same molecule, the mortality at 100 ppm in data set [1] turned out to be 100%.

`CCC1OC2(CCC1C)CC1CC(CC=C(C)C(OC(=O)Nc3ccccc3[N+](=O)[O-])C(C)C=CC=C3COC4C(O)C(C)=CC(C(=O)O1)C34O)O2` (centres unmarked) [Beispiel E38]: in data set [1], the mortality at 100 ppm turned out to be 100%.
